# Source: patent US20220009906A1, “ISOINDOLIN-1-ONE DERIVATIVES USEFUL AS GRK2 INHIBITORS” (priority 2020, published 2022)
# Where “and” joins values, the source holds several entries; their conditions need not be identical. Identical values can stand only once.
# Biological target: T1, GRK2 (Homo sapiens, UniProt P25098)
# T1 sequence (P25098 1-689): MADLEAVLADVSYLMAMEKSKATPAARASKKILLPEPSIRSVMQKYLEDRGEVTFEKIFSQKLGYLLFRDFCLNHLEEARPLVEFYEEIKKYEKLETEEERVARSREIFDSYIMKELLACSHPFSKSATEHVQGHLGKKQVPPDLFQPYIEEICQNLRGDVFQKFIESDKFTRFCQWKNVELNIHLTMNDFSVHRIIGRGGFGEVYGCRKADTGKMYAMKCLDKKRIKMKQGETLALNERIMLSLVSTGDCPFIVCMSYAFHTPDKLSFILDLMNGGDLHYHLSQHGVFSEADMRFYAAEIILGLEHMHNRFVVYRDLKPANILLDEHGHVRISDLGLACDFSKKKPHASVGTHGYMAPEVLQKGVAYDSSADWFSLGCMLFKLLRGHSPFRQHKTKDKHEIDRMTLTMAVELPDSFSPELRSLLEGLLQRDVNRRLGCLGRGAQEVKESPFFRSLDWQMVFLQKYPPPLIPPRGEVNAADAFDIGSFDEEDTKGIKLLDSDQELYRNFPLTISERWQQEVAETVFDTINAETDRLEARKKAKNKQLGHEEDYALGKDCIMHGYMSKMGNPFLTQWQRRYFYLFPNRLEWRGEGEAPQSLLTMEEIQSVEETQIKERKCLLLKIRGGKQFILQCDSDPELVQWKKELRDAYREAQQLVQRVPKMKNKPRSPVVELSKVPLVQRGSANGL
# Test: GRK2 Transcreener Assay
# Type: biochemical
# Details: Biological Example 2 GRK2 Transcreener IC50 (μM), 10 nM GRK2; 10 μM ATP; 150 μM peptide substrate; multiple measurements listed individually
# Method: Positive and negative control wells received an equal volume of DMSO. The final DMSO concentration in the assay is 1%.
# The plate was placed in centrifuge equipped with a spin-bucket rotor and spun for 1 min at 1000 rpm.
# GRK2 enzymatic reactions were initiated with the addition of 2 μL/well of 50 nM GRK2 in assay buffer. Plates were centrifuged for 1 min at 1000 rpm. For negative control wells, the order of reagent addition was reversed: 10 μL/well ADP detection mix (see below) was added first, followed by the addition of 2 μL/well of the GRK2 solution. Reaction mixtures were incubated at ambient temperature for 2 hours. Final concentrations of reagents in the assays were as follows:
# Following incubation, the reactions were quenched with 10 μL/well of the Transcreener ADP detection mix. […] The plates were then centrifuged for 1 min at 1000 rpm.
# Fluorescence polarization values of the reaction mixtures were read on a Safire plate reader after a 60 min incubation at ambient temperature. Excitation wavelength=590 nm; emission wavelength=650 nm.
# The fluorescence polarization data were converted to % activity as follows:
# % activity=(sample−NC)/(PC−NC)*100
# where NC is the mean of negative control (ADP detection mix added prior to GRK2 addition), and PC is the mean of positive control (GRK2 reaction without inhibitor). IC50 values are determined from a 4-parameter fit, using the following equation:
# Y=Bottom+(Top−Bottom)/(1+10^((Log IC50−X)*Hill slope))
# where X=log10 of the compound concentration.
row,Compound,IC50
1,"COc1cccc(CN2Cc3ccc(-c4cn[nH]c4)cc3C2=O)c1 [Compound 1, 2-(3-methoxybenzyl)-6-(1H-pyrazol-4-yl)isoindolin-1-one]",< 0.005 µM and 0.005 µM
2,"CCOc1cccc(CN2Cc3ccc(-c4cn[nH]c4)cc3C2=O)c1 [Compound 2, 2-(3-ethoxybenzyl)-6-(1H-pyrazol-4-yl)isoindolin-1-one]",0.009 µM
3,COc1cccc(CN2Cc3ccc(-c4ccnc(N)n4)cc3C2=O)c1 [Compound 4],0.08 µM
4,"COc1cccc(CN2C(=O)c3cc(-c4cn[nH]c4)ccc3C23CC=CC3)c1 [Compound 6, 2′-(3-methoxybenzyl)-5′-(1H-pyrazol-4-yl)spiro[cyclopentane-1,1′-isoindolin]-3-en-3′-one]",0.01 µM
5,"COc1cccc(CN2C(=O)c3cc(-c4cn[nH]c4)ccc3C2(C)C)c1 [Compound 7, 2-(3-methoxybenzyl)-3,3-dimethyl-6-(1H-pyrazol-4-yl)isoindolin-1-one]",0.005 µM
6,"COc1cccc(CN2C(=O)c3cc(-c4cn[nH]c4)ccc3C23CC(O)C(O)C3)c1 (stereo not drawn) [Compound 8, 3,4-dihydroxy-2′-(3-methoxybenzyl)-5′-(1H-pyrazol-4-yl)spiro[cyclopentane-1,1′-isoindolin]-3′-one]",0.009 µM
7,CS(=O)(=O)Nc1cccc(CN2Cc3ccc(-c4cn[nH]c4)cc3C2=O)c1 [Compound 9],0.291 µM
8,CS(=O)(=O)Nc1cccc(CN2Cc3ccc(-c4ccnc5[nH]ccc45)cc3C2=O)c1 [Compound 10],0.719 µM
9,CCOc1cccc(CN2Cc3ccc(-c4ccnc(N)n4)cc3C2=O)c1 [Compound 11],0.383 µM
10,"COc1cccc(CN2C(=O)c3cc(-c4cn[nH]c4)ccc3C23CCNCC3)c1 [Compound 14, 2-(3-methoxybenzyl)-5-(1H-pyrazol-4-yl)spiro[isoindoline-1,4′-piperidin]-3-one]",< 0.005 µM
11,"O=C1c2cc(-c3cn[nH]c3)ccc2CN1Cc1cccc(F)c1 [Compound 16, 2-(3-Fluorobenzyl)-6-(1H-pyrazol-4-yl)isoindolin-1-one]",0.017 µM
12,"COc1cccc(CN2C(=O)c3cc(-c4ccnc(N)n4)ccc3C2(C)C)c1 [Compound 17, 6-(2-aminopyrimidin-4-yl)-2-(3-methoxybenzyl)-3,3-dimethylisoindolin-1-one]",0.048 µM
13,O=C(O)c1cccc(CN2Cc3ccc(-c4cn[nH]c4)cc3C2=O)c1 [Compound 18],0.139 µM
14,"COc1cccc(CN2Cc3ccc(-c4c[nH]nn4)cc3C2=O)c1 [Compound 20, 2-(3-methoxybenzyl)-6-(1H-1,2,3-triazol-4-yl)isoindolin-1-one]",0.02 µM
15,"COc1cccc(CN2C(=O)c3cc(-c4c[nH]nn4)ccc3C2(C)C)c1 [Compound 21, 2-(3-methoxybenzyl)-3,3-dimethyl-6-(1H-1,2,3-triazol-4-yl)isoindolin-1-one]",0.054 µM
16,"NCc1cccc(CN2Cc3ccc(-c4cn[nH]c4)cc3C2=O)c1 [Compound 22, 2-(3-(Aminomethyl)benzyl)-6-(1H-pyrazol-4-yl)isoindolin-1-one]",1.2 µM

# Biological target: T1, GRK2
# Test: hGRK2 LANCE Ultra In Vitro Assay
# Type: biochemical
# Details: Biological Example 1 GRK2 Lancer IC50 (μM), 10 nM GRK2; 30 or 600 μM ATP (not stated which); multiple measurements listed individually
# Procedure, shortened: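 TR-FRET kinase assay with 10 nM GRK2 preincubated 30 min with compound, then 200 nM ULight-peptide and 30 or 600 μM ATP in HEPES pH 7.5, 10 mM MgCl2, 1% DMSO; 120 or 60 min at ambient temperature respectively.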
row,Compound,IC50
1,"COc1cccc([C@@H](C)N2Cc3c(cc(-c4cn[nH]c4)cc3-c3ccc(C(C)(C)O)nc3)C2=O)c1 [Compound 141, (R)-4-(6-(2-hydroxypropan-2-yl)pyridin-3-yl)-2-(1-(3-methoxyphenyl)ethyl)-6-(1H-pyrazol-4-yl)isoindolin-1-one]",0.02 µM
2,"COc1cccc(C(CO)N2Cc3c(cc(-c4cn[nH]c4)cc3-c3cccnc3)C2=O)c1 (stereo not drawn) [Compound 142, 2-(2-hydroxy-1-(3-methoxyphenyl)ethyl)-6-(1H-pyrazol-4-yl)-4-(pyridin-3-yl)isoindolin-1-one]",0.008 µM
3,"COc1cccc(C(CO)N2Cc3c(cc(-c4cn[nH]c4)cc3-c3cccc(O)c3)C2=O)c1 (stereo not drawn) [Compound 143, 2-(2-hydroxy-1-(3-methoxyphenyl)ethyl)-4-(3-hydroxyphenyl)-6-(1H-pyrazol-4-yl)isoindolin-1-one]",0.005 µM
4,"COc1cccc([C@@H](C)N2Cc3c(cc(-c4cn[nH]c4)cc3-c3ccc(C(F)(F)F)nc3)C2=O)c1 [Compound 145, (R)-2-(1-(3-methoxyphenyl)ethyl)-6-(1H-pyrazol-4-yl)-4-(6-(trifluoromethyl)pyridin-3-yl)isoindolin-1-one]",0.285 µM
5,"COc1cccc(CN2C(=O)c3cc(-c4cn[nH]c4)ccc3C23CCC2NC(=O)OC23)c1 (stereo not drawn) [Compound 150, 2′-(3-methoxybenzyl)-5′-(1H-pyrazol-4-yl)-3a,4,5,6a-tetrahydrospiro[cyclopenta[d]oxazole-6,1′-isoindoline]-2,3′(3H)-dione]",0.013 µM
6,"COc1cccc(CN2C(=O)c3cc(-c4cn[nH]c4)ccc3C23CCC2OC(=O)NC23)c1 (stereo not drawn) [Compound 151, 2′-(3-methoxybenzyl)-5′-(1H-pyrazol-4-yl)-3a,5,6,6a-tetrahydrospiro[cyclopenta[d]oxazole-4,1′-isoindoline]-2,3′(3H)-dione]",0.011 µM
7,"COc1cccc(C(CO)N2Cc3c(cc(-c4cn[nH]c4)cc3-c3cncc(F)c3)C2=O)c1 (stereo not drawn) [Compound 152, 4-(5-fluoropyridin-3-yl)-2-(2-hydroxy-1-(3-methoxyphenyl)ethyl)-6-(1H-pyrazol-4-yl)isoindolin-1-one]",0.017 µM
8,"COc1cccc(C(CO)N2Cc3c(cc(-c4cn[nH]c4)cc3-c3ccc(O)cc3)C2=O)c1 (stereo not drawn) [Compound 153, 2-(2-Hydroxy-1-(3-methoxyphenyl)ethyl)-4-(4-hydroxyphenyl)-6-(1H-pyrazol-4-yl)isoindolin-1-one]",0.019 µM
9,"COc1cccc([C@@H](C)N2Cc3c(cc(-c4cn[nH]c4)cc3-c3ccnc(C(C)(C)C)c3)C2=O)c1 [Compound 154, (R)-4-(2-(tert-butyl)pyridin-4-yl)-2-(1-(3-methoxyphenyl)ethyl)-6-(1H-pyrazol-4-yl)isoindolin-1-one]",0.932 µM
10,"COc1cccc([C@@H](C)N2Cc3c(cc(-c4cn[nH]c4)cc3N3CCNCC3)C2=O)c1 [Compound 155, (R)-2-(1-(3-methoxyphenyl)ethyl)-4-(piperazin-1-yl)-6-(1H-pyrazol-4-yl)isoindolin-1-one]",0.007 µM
11,"COc1cccc([C@@H](C)N2Cc3c(cc(-c4cn[nH]c4)cc3N3CCN(C)CC3)C2=O)c1 [Compound 156, (R)-2-(1-(3-methoxyphenyl)ethyl)-4-(4-methylpiperazin-1-yl)-6-(1H-pyrazol-4-yl)isoindolin-1-one]",0.011 µM
12,"COc1cccc(C(CO)N2Cc3c(cc(-c4cn[nH]c4)cc3-c3cncnc3)C2=O)c1 (stereo not drawn) [Compound 158, 2-(2-hydroxy-1-(3-methoxyphenyl)ethyl)-6-(1H-pyrazol-4-yl)-4-(pyrimidin-5-yl)isoindolin-1-one]",0.027 µM
13,CC(C)NC(=O)c1cccc(CN2Cc3cc(F)c(-c4cn[nH]c4)cc3C2=O)c1 [Compound 166],0.005 µM
14,CCOc1cccc([C@@H](C)N2Cc3ccc(-c4ccnc5[nH]ccc45)cc3C2=O)c1 [Compound 167],> 20 µM
15,COc1cccc(C(C(=O)N(C)C)N2Cc3ccc(-c4cn[nH]c4)cc3C2=O)c1 (stereo not drawn) [Compound 168],0.146 µM
16,COc1cccc([C@@H](C(=O)O)N2Cc3ccc(-c4cn[nH]c4)cc3C2=O)c1 [Compound 169],0.542 µM
17,COc1cccc(CN2C(=O)c3cc(-c4cn[nH]c4)ccc3C23CCC(OC)C3)c1 (stereo not drawn) [Compound 170],0.006 µM
18,CCOc1cccc([C@@H](C)N2Cc3ccc(-c4ncccn4)cc3C2=O)c1 [Compound 171],0.104 µM
19,O=C(NC1CC2CCC1C2)c1cccc(CN2Cc3ccc(-c4cn[nH]c4)cc3C2=O)c1 (stereo not drawn) [Compound 174],0.003 µM

# Same assay, conditions: read-out: Biological Example 1 GRK2 Lancer IC50; 10 nM GRK2; 30 or 600 μM ATP (not stated which); multiple measurements listed individually
row,Compound,IC50
1,"COc1cccc([C@@H](C)N2Cc3c(cc(-c4cn[nH]c4)cc3C3CCNC3)C2=O)c1 (stereo partly drawn) [Compound 144, 2-((R)-1-(3-methoxyphenyl)ethyl)-6-(1H-pyrazol-4-yl)-4-(pyrrolidin-3-yl)isoindolin-1-one]",0.007 µM
